Results as given in US20240067600A1, “SMALL MOLECULE INHIBITORS OF THE MITOCHONDRIAL PERMEABILITY TRANSITION PORE (mtPTP)” (UNIVERSITY OF KANSAS, priority 2014, published 2024).
Read-outs that look alike come from different tables or passages of the source.

How the values were obtained:
Format in all cases: biochemical, mice
[1] = tested on: Mitochondrial Permeability Transition Pore; assay: Mitochondrial swelling absorbance assay
Experimental: Mitochondrial Swelling (Hit Validation, Confirmatory Assay, Concentration-Response, AID No. 720722)
Assay buffer: 250 mM sucrose, 10 mM MOPS-Tris, 0.01 mM EGTA-Tris, 1.0 mM phosphoric acid-Tris, pH 7.4 • Solution 1. 5.0 mM glutamate and 2.5 mM malate in Assay buffer. • Solution 2. 80-120 μM CaCl2) depending on mitochondrial activity in Solution 1. Note: Concentration of Ca^2+ in the assay is dependent upon the activity of the isolated mitochondria which is determined via a calcium titration just before each screening batch. A Ca^2+ concentration is used that allows for the arrival at a 2:1 window at the 20 minute time period. • Solution 3. 1% DMSO in Solution 2. • Solution 4. 2.0 mM EGTA-Tris, pH 7.4 in Solution 3. • Solution 5. 0.5 mg/mL mitochondria in Assay Buffer.
Protocol Summary: • 1. Freshly isolate mitochondria, prepare solutions according to the recipes in the reagent section • 2. Dispense 100 μL of Solution 4 to Columns 1-2 and Solution 3 Columns 11-12 (positive and negative controls, respectively) of the 96-well clear assay plate (Falcon 353072) • 3. Dispense 200 μL of Solution 1 to Row A Columns 3-10. • 4. Next, dispense 100 μL of Solution 3 to Rows B-H Columns 3-10. • 5. Add 4 μL of 5 mM test compounds in DMSO to Row A Columns 3-10, perform 1:2 serial dilutions Row A to H Columns 3-10. • 6. Finally, dispense 100 μL of Solution 5 in all wells. The reaction starts. • 7. Keep the plate at room temperature for 20 minutes and then read absorbance at 540 nm on MultiSkan EX, Thermo Scientific.
Concentration-Response Assay to Identify Compounds that Inhibit Mitochondrial Swelling (SAR Assay AID No. 743359)
Assay buffer: 250 mM sucrose, 10 mM MOPS-Tris, 0.01 mM EGTA-Tris, 1.0 mM phosphoric acid, pH 7.4 • Solution 1. 5.0 mM glutamate and 2.5 mM malate in Assay Buffer. • Solution 2. 100-120 μM CaCl2) depending on mitochondrial activity in Solution 1. Note: Concentration of Ca^2+ in the assay is dependent upon the activity of the isolated mitochondria which is determined via a calcium titration just before each screening batch. A Ca^2+ concentration is used that allows for the arrival at a 2:1 window at the 20 minute time period. • Solution 3. 1% DMSO in Solution 2. • Solution 4. 2.0 mM EGTA-Tris, pH 7.4 in Solution 3. • Solution 5. 0.5 mg/mL mitochondria in Assay Buffer.
Protocol Summary: • 1. Freshly isolate mitochondria, prepare solutions according to the recipes in the Reagent Section. • 2. Dispense 100 μL of Solution 4 to Columns 1-2 and Solution 3 Columns 11-12 (positive and negative controls, respectively) of the 96-well clear assay plate (Falcon 353072). • 3. Dispense 200 μL of Solution 1 to Row A Columns 3-10. • 4. Next, dispense 100 μL of Solution 3 to Rows B-H Columns 3-10. • 5. Add 4 μL of 5 mM test compounds in DMSO to Row A Columns 3-10, perform 1:2 serial dilutions Row A to H Columns 3-10. • 6. Finally, dispense 100 μL of Solution 5 in all wells. The reaction starts. • 7. Keep the plate at room temperature for 20 minutes and then read absorbance at 540 nm on MultiSkan EX, Thermo Scientific.

[2] = tested on: IMM potential; assay: Rhodamine 123 (Rh123) uptake counterscreen;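 note: isolated mitochondria respiring on glutamate plus malate in sucrose MOPS-Tris buffer at pH 7.4, Rh123 added with the organelles, compounds tested across a twofold dilution series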
Experimental: Assay buffer: 250 mM sucrose, 10 mM MOPS-Tris, 0.01 mM EGTA-Tris, 1.0 mM phosphoric acid-Tris, pH 7.4 • Solution 1. 5.0 mM glutamate and 2.5 mM malate in Assay Buffer. • Solution 2. 1% DMSO in Solution 1. • Solution 3. 0.8 μM FCCP (the stock 40 μM in DMSO) in Solution 1. • Solution 4. 0.5 mg/mL mitochondria and 0.8 μM Rh123 in Assay Buffer.
Protocol Summary: • 1. Freshly isolate mitochondria, prepare solutions according to the recipes in the Reagent Section. • 2. Dispense 100 μL of Solution 3 to Columns 1-2 and Solution 2 Columns 11-12 (positive and negative controls, respectively) of the 96-well black assay plate (Falcon 353376). • 3. Dispense 200 μL of Solution 1 to Row A Columns 3-10. • 4. Next, dispense 100 μL of Solution 2 to Rows B-H Columns 3-10. • 5. Add 4 μL of 10 mM test compounds in DMSO to Row A Columns 3-10, perform 1:2 serial dilutions Row A to H Columns 3-10. • 6. Finally, dispense 100 μL of Solution 4 in all wells. The reaction starts. • 7. Keep the plate at room temperature for 5 minutes and then read fluorescence (excitation 485 nm, emission 538 nm) on Fluoroskan Ascent FL, Thermo Scientific.
Concentration-Response Counterscreen Assay to Identify Compounds that Prevent Mitochondrial Swelling Via Interference with the IMM Potential (SAR Assay AID No. 743361)
Assay buffer: 250 mM sucrose, 10 mM MOPS-Tris, 0.01 mM EGTA-Tris, 1.0 mM phosphoric acid-Tris, pH 7.4 • Solution 1. 5.0 glutamate and 2.5 mM malate in Assay Buffer. • Solution 2. 1% DMSO in Solution 1. • Solution 3. 0.8 μM FCCP (the stock 40 μM in DMSO) in Solution 1. • Solution 4. 0.5 mg/mL mitochondria and 0.8 μM Rh123 in Assay Buffer.

[3] = tested on: mtPTP; assay: Calcium retention capacity (CRC) assay on isolated mitochondria; conditions: for Calcium Retention Capacity (CRC/CRC0 at 12.5 μM): 12.5 μM compound; for Calcium Retention Capacity (CRC/CRC0) at 1.56 μM: 1.56 μM compound
Experimental: Assay buffer: 250 mM sucrose, 10 mM MOPS-Tris, 0.01 mM EGTA-Tris, 1.0 mM phosphoric acid-Tris, pH 7.4. • Solution 1. 10 mM glutamate and 5 mM malate in Assay buffer. • Solution 2. 1% DMSO in Solution 2. • Solution 3. 0.5 mg/mL mitochondria and 1.0 μM Calcium Green-5N in Assay Buffer. • Solution 4. 0.25 mM CaCl2).
Protocol Summary: • 1. Freshly isolate mitochondria, prepare solutions according to the recipes in the Reagent Section. • 2. Dispense 100 μL of Solution 2 to Columns 1-2 (negative control) of the 96-well black assay plate (Falcon 353376). • 3. Dispense 200 μL of Solution 1 to Row A Columns 3-12. • 4. Next, dispense 100 μL of Solution 2 to Rows B-H Columns 3-12. • 5. Add 4 μL of 5 mM test compounds in DMSO to Row A Columns 3-12, perform 1:2 serial dilutions Row A to H Columns 3-12. • 6. Finally, dispense 100 μL of Solution 3 in all wells. • 7. Experiment starts. Read Calcium Green-5N fluorescence (excitation 485 nm, emission 538 nm) and perform a train of 4 μL Solution 4 additions with Fluoroskan Ascent FL, Thermo Scientific.

[4] = Table 1, read-out: Rh123 uptake (EC50)
[5] = Table 2, average of >3 experiments ± SEM
[6] = Table 2, average of >3 experiments ± SEM, read-out: Rh123 Assay EC50

Row | SMILES | EC50 ([1]; Table 1, average ± SEM) [µM] | EC50 [1, 5] [µM] | EC50 ([1]; Table 1, unit inferred, average ± SEM) [µM] | EC50 [2, 4] [µM] | Calcium Retention Capacity (CRC/CRC0 at 12.5 μM) ([3]; Table 1, average ± SEM) | EC50 [2, 6] [µM] | Calcium Retention Capacity (CRC/CRC0 at 12.5 μM) [3, 5] | Calcium Retention Capacity (CRC/CRC0) at 1.56 μM ([3]; Table 1, average ± SEM)
1 | O=C(Nc1cc(Cl)ccc1F)c1cc(-c2ccc(F)c(O)c2)on1 | 0.009 ± 0.0014 | – | – | > 100 | 10.07 ± 0.69 | – | – | –
2 | COc1ccc(Cl)cc1C(=O)Nc1ccc(CCN2CCOCC2)cc1 | 9 ± 0.404 | – | – | > 100 | 1.23 ± 0.02 | – | – | –
3 | COc1ccc(Cl)cc1C(=O)Nc1ccc(CN2CCN(C(=O)OC(C)(C)C)CC2)cc1 | 9.24 ± 0.86 | – | – | > 100 | 1.33 ± 0.06 | – | – | –
4 | COc1ccc(Cl)cc1C(=O)Nc1ccc(CN2CCOCC2)cc1 | 8.12 ± 0.388 | – | – | > 100 | 1.20 ± 0.00 | – | – | –
5 | COc1ccc(Cl)cc1C(=O)Nc1ccc(CN2CCCCC2)cc1 | 1.54 ± 0.101 | – | – | > 100 | 1.80 ± 0.00 | – | – | –
6 | O=C(Nc1ccc(CN2CCCCC2)cc1)c1cccc(OCc2ccccc2)c1 | 0.885 ± 0.116 | – | – | 51.2 | 3.54 ± 0.28 | – | – | –
7 | O=C(Nc1ccc(CN2CCCCC2)cc1)c1cccc(Cl)c1 | 16 ± 1.58 | – | – | > 100 | 1.16 ± 0.02 | – | – | –
8 | O=S(=O)(Nc1ccc(CCN2CCCCC2)cc1)c1cccc(Cl)c1 | 38.7 ± 3.67 | – | – | > 100 | 1.12 ± 0.02 | – | – | –
9 | O=S(=O)(Nc1ccc(CCN2CCNCC2)cc1)c1cc(Cl)cc(Cl)c1 | 21.4 ± 0.983 | – | – | > 100 | 1.09 ± 0.05 | – | – | –
10 | CC1(C)CCN(CCCC(=O)c2ccc(Br)cc2)CC1 | 18 ± 1.33 | – | – | > 100 | 1.10 ± 0.05 | – | – | –
11 | CC(C)C1CCN(CCCC(=O)c2ccc(Br)cc2)CC1 | 10 ± 7.78 | – | – | 64.8 ± 4.19 | 1.16 ± 0.05 | – | – | –
12 | O=C(Nc1ccc(CN2CCCCC2)cc1)c1cc(F)cc(OCc2ccccc2)c1 [Entry 1] | – | 0.521 ± 0.046 | – | – | – | 58.6 ± 2.9 | 10.8 ± 0.6 | –
13 | O=C(Nc1ccc(CN2CCCCC2)cc1)c1ccc(F)c(OCc2ccccc2)c1 [Entry 2] | – | 0.372 ± 0.028 | – | – | – | > 100 | 13.3 ± 1.0 | –
14 | O=C(Nc1ccc(CN2CCCCC2)cc1)c1cc(OCc2ccccc2)ccc1Cl [Entry 3] | – | 3.6 ± 0.17 | – | – | – | 75.7 ± 1.8 | 2.26 ± 0.11 | –
15 | O=C(Nc1ccc(CN2CCOCC2)cc1)c1ccc(Cl)c(OCc2ccccc2)c1 [Entry 4] | – | 0.403 ± 0.031 | – | – | – | > 100 | 8.81 ± 0.39 | –
16 | CN1CCN(Cc2ccc(NC(=O)c3ccc(Cl)c(OCc4ccccc4)c3)cc2)CC1 [Entry 5] | – | 0.423 ± 0.028 | – | – | – | 49.6 ± 4.3 | 14.1 ± 1.1 | –
17 | O=C(Nc1cccc(CN2CCNCC2)c1)c1ccc(Cl)c(OCc2ccccc2)c1 [Entry 6] | – | 0.286 ± 0.027 | – | – | – | 42.6 ± 3.1 | 16.1 ± 1.5 | –
18 | O=C(Nc1ccc(CN2CCNCC2)cc1)c1ccc(Cl)c(OCc2ccccc2)c1 [Entry 7] | – | 0.206 ± 0.021 | – | – | – | 46.4 ± 3.2 | 18.3 ± 1.3 | –
19 | O=C(Nc1ccc(CN2CCCCC2)cc1)c1ccc(Cl)c(OCc2cccc(Cl)c2)c1 [Entry 8] | – | 1.19 ± 0.33 | – | – | – | 23.2 ± 1.3 | 6.50 ± 1.20 | –
20 | O=C(Nc1ccc(CN2CCCCC2)cc1)c1ccc(Cl)c(OCc2ccccc2Cl)c1 [Entry 9] | – | 4 ± 0.66 | – | – | – | > 100 | 2.37 ± 0.41 | –
21 | O=C(Nc1ccc(CN2CCCCC2)cc1)c1ccc(Cl)c(OCc2ccc(F)cc2)c1 [Entry 12] | – | 0.49 ± 0.08 | – | – | – | 28.6 ± 1.1 | 10.1 ± 0.8 | –
22 | O=C(Nc1cccc(Cl)c1Cl)c1cc(-c2ccc(F)c(O)c2)on1 [drawing 136] | 0.0554 ± 0.0041 | – | – | > 100 | 9.37 ± 0.65 | – | – | –
23 | Cc1c(Cl)cccc1NC(=O)c1cc(-c2ccc(F)c(O)c2)on1 [drawing 141] | 0.00089 ± 0.000141 | – | – | > 100 | – | – | – | 12.14 ± 0.55 (at 1.56 μM)
24 | COc1ccc(/C=C/C(=O)Nc2cccc(Cl)c2)cc1O [drawing 143] | 0.125 ± 0.0071 | – | – | > 100 | 11.05 ± 1.35 | – | – | –
25 | COc1ccc(Cl)cc1C(=O)Nc1ccc(CCN2CCNCC2)cc1 [drawing 145] | 5.85 ± 0.344 | – | – | > 100 | 1.37 ± 0.02 | – | – | –
26 | COc1ccc(Cl)cc1C(=O)Nc1ccc(CN2CCNCC2)cc1 [drawing 151] | 6.87 ± 0.423 | – | – | > 100 | 1.24 ± 0.04 | – | – | –
27 | COc1ccc(Cl)cc1C(=O)Nc1ccc(CN2CCNCC2)cc1 [drawing 153] | 2.15 ± 0.1 | – | – | > 100 | 1.65 ± 0.06 | – | – | –
28 | COc1ccc(Cl)cc1C(=O)Nc1ccc(CCN2CCNCC2)cc1 [drawing 154] | 7.25 ± 0.526 | – | – | > 100 | 1.31 ± 0.03 | – | – | –
29 | O=C(Nc1cccc(Cl)c1)c1cc(-c2cccc(O)c2)on1 [drawing 182] | 0.0788 ± 0.0058 | – | – | > 100 | – | – | – | 4.13 ± 0.17 (at 1.56 μM)

Further lines, with some results ahead:

Row | EC50 ([1]; Table 1, average ± SEM) [µM] | EC50 [1, 5] [µM] | EC50 ([1]; Table 1, unit inferred, average ± SEM) [µM] | SMILES | EC50 [2, 4] [µM] | Calcium Retention Capacity (CRC/CRC0 at 12.5 μM) ([3]; Table 1, average ± SEM) | EC50 [2, 6] [µM] | Calcium Retention Capacity (CRC/CRC0 at 12.5 μM) [3, 5] | Calcium Retention Capacity (CRC/CRC0) at 1.56 μM ([3]; Table 1, average ± SEM)
30 | 0.819 ± 0.0589 | – | – | Cc1cc(Cl)cc(NC(=O)c2cc(-c3ccc(F)c(O)c3)on2)c1 | > 100 | 6.08 ± 0.52 | – | – | –
31 | 2.19 ± 0.15 | – | – | Cc1cnc(Cl)cc1NC(=O)c1cc(-c2ccc(F)c(O)c2)on1 | > 100 | 3.48 ± 0.51 | – | – | –
32 | 2.68 ± 0.166 | – | – | COc1ccc(Cl)cc1C(=O)Nc1ccc(CCN2CCCCC2)cc1 | > 100 | 1.51 ± 0.01 | – | – | –
33 | 3.27 ± 0.15 | – | – | COc1ccc(Cl)cc1C(=O)Nc1cccc(CN2CCNCC2)c1 | > 100 | 1.52 ± 0.06 | – | – | –
34 | 37.5 ± 3.63 | – | – | CN1CCN(c2ccc(NS(=O)(=O)c3cccc(Cl)c3)cc2)CC1 | > 100 | 1.05 ± 0.03 | – | – | –
35 | 29.2 ± 2.1 | – | – | CN1CCN(Cc2ccc(NS(=O)(=O)c3cc(Cl)cc(Cl)c3)cc2)CC1 | > 100 | 1.10 ± 0.02 | – | – | –
36 | 25.6 ± 1.8 | – | – | O=S(=O)(Nc1ccc(CCN2CCCCC2)cc1)c1cc(Cl)cc(Cl)c1 | > 100 | 1.17 ± 0.04 | – | – | –
37 | 21.7 ± 1.08 | – | – | CN1CCN(c2ccc(NS(=O)(=O)c3cc(Cl)cc(Cl)c3)cc2)CC1 | > 100 | 1.11 ± 0.03 | – | – | –
38 | 29.1 ± 2.92 | – | – | O=S(=O)(Nc1ccc(CCN2CCCCC2)cc1)c1ccc(F)c(Cl)c1 | > 100 | 1.07 ± 0.03 | – | – | –
39 | 0.189 ± 0.028 | – | – | COc1ccc(NC(=O)c2cc(-c3cccc(O)c3)on2)cc1Cl | > 100 | 3.26 ± 0.32 | – | – | –
40 | 46 ± 1.36 | – | – | C[C@@H]1CCC[C@H](C)N1CCCC(=O)c1ccc(Br)cc1 | > 100 | 1.01 ± 0.02 | – | – | –
41 | – | 1.24 ± 0.39 | – | O=C(Nc1ccc(CN2CCCCC2)cc1)c1ccc(Cl)c(OCc2ccc(Cl)cc2)c1 [Entry 10] | – | – | 24.7 ± 1.5 | 5.91 ± 0.38 | –
42 | – | 1.39 ± 0.17 | – | O=C(Nc1ccc(CN2CCCCC2)cc1)c1ccc(Cl)c(OCc2ccccc2F)c1 [Entry 11] | – | – | > 100 | 2.59 ± 0.54 | –
43 | – | 0.073 ± 0.007 | – | COc1ccc(/C=C/C(=O)Nc2cccc(Cl)c2)cc1O [Entry 13] | – | – | > 100 | 7.67 ± 0.35 | –
44 | 0.277 ± 0.001 | – | – | COc1ccc(-c2cc(C(=O)Nc3cc(Cl)cc(Cl)c3)no2)cc1O [drawing 126] | > 100 | – | – | – | 1.17 ± 0.11 (at 1.56 μM)
45 | – | – | 0.0756 ± 0.0092 | O=C(Nc1cc(Cl)cc(Cl)c1)c1cc(-c2ccc(F)c(O)c2)on1 [drawing 140] | > 100 | 7.14 ± 0.69 | – | – | –
46 | 7.61 ± 0.839 | – | – | COc1ccc(Cl)cc1C(=O)Nc1ccc(CCN2CCN(C(=O)OC(C)(C)C)CC2)cc1 [drawing 148] | > 100 | 1.37 ± 0.02 | – | – | –
47 | 0.076 ± 0.0092 | – | – | O=C(Nc1cc(Cl)cc(Cl)c1)c1cc(-c2ccc(F)c(O)c2)on1 [drawing 191] | > 100 | 11.22 ± 1.22 | – | – | –
48 | 0.071 ± 0.0011 | – | – | O=C(Nc1cccc(Cl)c1Cl)c1cc(-c2ccc(F)c(O)c2)on1 [drawing 193] | > 100 | 11.21 ± 1.38 | – | – | –
49 | 0.366 ± 0.0475 | – | – | COc1ccc(-c2cc(C(=O)Nc3cc(Cl)ncc3C)no2)cc1O [drawing 202] | > 100 | 4.27 ± 0.40 | – | – | –
